Consider two compounds from PMC4630399, “Charge-Based Inhibitors of Amylin Fibrillization and Toxicity” (Journal of Diabetes Research, 2015).

Entries after “also recorded” stand apart in the source; their conditions may differ. Positions of bridges follow the written chain, without caps; N, C: chain ends. Residues, ends and D or L forms follow the SMILES beside them.

Data set [1] is described as follows: ThT assay of fibrillization kinetics, peptides alone. The format is physicochemical. The method, then:
(§1) The time course of fibrillization in solution was monitored using 100–200 μL amylin samples, contained in white polystyrene clear bottom 96-well plates (Corning Inc., Corning, NY). Plates were covered with a clear polyester sealing tape (Fisher Scientific, Agawam, MA) to prevent evaporation. Stock solutions of 1.1 mM WT-amylin and inhibitor peptides were prepared in 100% DMSO, which dissolves and disaggregates amylin fibrils, and were stored at −80°C when not in use. Starting from the 1.1 mM stock solutions in 100% DMSO, samples for fibrillization reactions were prepared to contain 20 μM amylin and 10 μM ultrapure ThT, in 20 mM sodium phosphate buffer, pH 7.4, and a final DMSO concentration of 2% (v/v). For experiments using larger 400 μM concentrations of Arg-2 and Mem-T, the solutions were prepared by diluting 100% DMSO stock solutions of 20 mM peptide to a final DMSO concentration of 2% (v/v). Amylin was the last component added to the samples for the kinetic reactions, in order to reduce the dead time for the experiments. The plates were incubated at 25°C without agitation. Fluorescence intensity was recorded at 2 min intervals with excitation at 440 nm and emission at 490 nm on a Fluoroskan Ascent 2.5 fluorescence plate reader. Fibrillization reactions for the peptides alone were performed in triplicate and for analog-peptide inhibition of WT-amylin in duplicate, to estimate experimental uncertainties in kinetic parameters.

Data set [2] is described as follows: TEM of aggregates formed by peptides alone. Type of data set: physicochemical. The conditions noted are these: 80 μM peptide, 2 days, 20 mM phosphate pH 7.4, 37°C, no agitation. The procedure: (§2) Samples containing 80 μM concentrations of WT-amylin and the three analogs were incubated without agitation at a temperature of 37°C in 20 mM phosphate buffer (pH 7.4). For the inhibition reactions, samples contained WT-amylin at an 80 μM concentration, together with 160 μM of Arg-1, Arg-2, or Mem-T analogs. Aliquots from the reactions were removed after 2 days for TEM imaging. The aliquots were blotted onto carbon-coated 400-mesh Maxtaform copper grids (Ted Pella Inc. Redding, CA) for 1–3 min, followed by negative staining with 1% uranyl acetate. TEM images were recorded on an FEI Tecnai G^2 Spirit BioTwin transmission electron microscope equipped with an AMT XR-40 camera.

The target of data set [3] is T1, WT-amylin (Homo sapiens, UniProt P10997).
T1 sequence (P10997 34-70 limits assumed): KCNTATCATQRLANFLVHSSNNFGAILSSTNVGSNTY
Nature of the data set: ThT assay, inhibition of WT-amylin fibrillization by analogs added in trans. The format is biochemical. Set-up: purchased Biopeptide (San Diego, CA); host or cells: solid-phase synthesis. The conditions noted are these: 20 μM WT-amylin; for effect on WT-amylin fibrillization lag time / reduction of WT-amylin fibril elongation rate: 150 mM NaCl; for reduction of WT-amylin fibril elongation rate: analog 0.001 to 120 μM. The method, then:
as §1, with “Starting from the 1.1 mM stock solutions in 100% DMSO, samples for fibrillization reactions were prepared to contain 20 μM amylin and 10 μM ultrapure ThT, in 20 mM sodium phosphate buffer, pH 7.4, and a final DMSO concentration of 2% (v/v).” left out

Data set [4] concerns the target T1, WT-amylin. Nature of the data set: TEM of WT-amylin fibrils formed in presence of inhibitor peptides. The format is biochemical. Also noted: purchased Biopeptide (San Diego, CA); host or cells: solid-phase synthesis. The conditions noted are these: 80 μM WT-amylin with 160 μM analog, 20 mM sodium phosphate pH 7.4, 1% DMSO, 37°C, 24 h. The procedure:
as §2
Figure 8 TEM images of fibrils formed from 80 μM WT amylin in the presence or absence of inhibitor peptides. (a) WT amylin alone, (b) with 160 μM Arg-1, (c) with 160 μM Arg-2, and (d) with 160 μM Mem-T. Aliquots were removed for TEM imaging 24 h after the fibrillization reactions were started. Reactions were carried out in 20 mM sodium phosphate (pH 7.4), 1% DMSO (v/v), at 37°C.

Data set [5] deals with WT-amylin cytotoxicity towards MIN6 mouse model of pancreatic β-cells. Briefly: Protection of MIN6 cells against WT-amylin cytotoxicity (Alamar Blue). The procedure:
The stock solutions were diluted with FBS-free DMEM and sonicated continuously for 5 min at 75% amplitude before use. FBS was subsequently added to a concentration of 15% (v/v), giving final amylin concentrations of 40, 80, and 160 μM. The final DMSO concentration for all cytotoxicity experiments was 1% (v/v).
Cytotoxicity was measured using the mouse insulinoma 6 (MIN6) cell line model of β-pancreatic cells, which were a gift from Dr. Anil Rustgi (University of Pennsylvania). Cells were seeded at a density of 20,000 per 100 μL in black clear-bottom 96-well plates. The cells were grown in DMEM with 15% FBS, 25 mM glucose, 2 mM L-glutamine, […] sodium pyruvate, 55 μM β-mercaptoethanol, 1000 units/mL penicillin, and 100 μg/mL streptomycin, for 20 h at 37°C in a humidified incubator with 5% CO2. […] The cells were incubated for another 24 h followed by the addition of 10% (v/v) of the redox indicator dye Alamar Blue at the concentration supplied by the manufacturer (Invitrogen). Fluorescence, due to the reduction of Alamar Blue by viable cells, was measured after 6 h, using excitation and emission wavelengths of 544 and 590 nm, respectively. Cell viability was calculated from the ratio of Alamar Blue fluorescence in treated to untreated cells. Uncertainties were calculated as the SEMs of triplicate measurements.
Background: Resazurin is reduced to fluorescent resorufin, in cell work by metabolically active cells.

Setting [6] is: 20 μM peptide, 150 mM NaCl, pH 7.4, 25°C.
Setting [7] is: 400 μM peptide, 150 mM NaCl, pH 7.4, 2% DMSO, 25°C, ThT, triplicate.
Setting [8] is: 400 μM peptide, pH 7.4, 2% DMSO, 25°C.

For `CC[C@H](C)[C@H](NC(=O)[C@H](C)NC(=O)CNC(=O)[C@H](Cc1ccccc1)NC(=O)[C@H](CC(N)=O)NC(=O)[C@H](CC(N)=O)NC(=O)[C@H](CO)NC(=O)[C@H](CO)NC(=O)[C@H](Cc1c[nH]cn1)NC(=O)[C@H](CC(=O)O)NC(=O)[C@H](CC(=O)O)NC(=O)[C@H](CC(=O)O)NC(=O)[C@H](CC(N)=O)NC(=O)[C@H](C)NC(=O)[C@H](CC(=O)O)NC(=O)[C@H](CCCNC(=N)N)NC(=O)[C@H](CC(=O)O)NC(=O)[C@@H](NC(=O)[C@H](C)NC(=O)[C@@H]1CSSC[C@H](NC(=O)[C@@H](N)CCCCN)C(=O)N[C@@H](CC(N)=O)C(=O)N[C@@H]([C@@H](C)O)C(=O)N[C@@H](C)C(=O)N[C@@H]([C@@H](C)O)C(=O)N1)[C@@H](C)O)C(=O)N[C@@H](CC(C)C)C(=O)N[C@@H](CO)C(=O)N[C@@H](CO)C(=O)N[C@H](C(=O)N[C@@H](CC(N)=O)C(=O)N[C@H](C(=O)NCC(=O)N[C@@H](CO)C(=O)N[C@@H](CC(N)=O)C(=O)N[C@H](C(=O)N[C@@H](Cc1ccc(O)cc1)C(N)=O)[C@@H](C)O)C(C)C)[C@@H](C)O` [Mem-T] (H-KCNTATCATDRDANDDDHSSNNFGAILSSTNVGSNTY-NH2; disulfide 2-7 (inferred); N-terminus assumed), in data set [1] (setting [6]), the “fibrillization detected (ThT)” value is listed as “failed to fibrillize”. In addition, in data set [1] (setting [7]), the fibril elongation rate was 6.1 ± 1.4 × 10^−6 min^−1 and the fibrillization lag time was 10,000 min. The “fibrillization detected (ThT)” value in data set [1] (400 μM peptide, absence of salt) is listed as “only a very weak signal for fibrils was detected”. Further, the “fibrillization detected (ThT)” value in data set [1] (setting [8]) is “weak fibrillization”. Also, the “fibrillization detected (ThT)” value in data set [1] (400 μM peptide, physiological salt concentrations and above) was “Fibrillization was stimulated”. Further, in data set [2], the “aggregate morphology by TEM” value is “only detected amorphous aggregates with nonfibrillar morphologies; also recorded: few if any fibrils”. In addition, in data set [3], the “reduction in elongation rates relative to arginine-peptides” value is “only about half of that for the arginine-peptides”, the “effect on WT-amylin fibrillization lag time” value is “decrease at high concentrations; also recorded: causes a reduction in lag times at high concentrations of the analog (>10 μM); also recorded: decreases the lag times” and the “reduction of WT-amylin fibril elongation rate” value is 4 fold. In data set [3] (varying NaCl), the “salt dependence of inhibition of elongation rate” value is “salt effects on elongation rates are reduced close to the uncertainties of the measurements” and the “salt dependence of lag time shortening” value was “shows a strong salt concentration dependence”. The “TEM of WT-amylin fibrils formed with inhibitor” value in data set [4] is reported as “indistinguishable from those formed with WT-amylin alone”. The “protection against WT-amylin cytotoxicity (overall)” value in data set [5] (MIN6 cells, 80 μM WT-amylin, up to 2 : 1 inhibitor : WT-amylin) is listed as “failed to protect against WT-amylin cytotoxicity”.
Consider `CC(C)C[C@H](NC(=O)[C@H](CCCNC(=N)N)NC(=O)[C@H](CCC(N)=O)NC(=O)[C@@H](NC(=O)[C@H](C)NC(=O)[C@@H]1CSSC[C@H](NC(=O)[C@@H](N)CCCCN)C(=O)N[C@@H](CC(N)=O)C(=O)N[C@@H]([C@@H](C)O)C(=O)N[C@@H](C)C(=O)N[C@@H]([C@@H](C)O)C(=O)N1)[C@@H](C)O)C(=O)N[C@@H](C)C(=O)N[C@@H](CC(N)=O)C(=O)N[C@@H](Cc1ccccc1)C(=O)N[C@@H](CC(C)C)C(=O)N[C@H](C(=O)N[C@@H](Cc1c[nH]cn1)C(=O)N[C@@H](CO)C(=O)N[C@@H](CO)C(=O)N[C@@H](CC(N)=O)C(=O)N[C@@H](CC(N)=O)C(=O)N[C@@H](CCCNC(=N)N)C(=O)N[C@@H](CCCNC(=N)N)C(=O)N[C@@H](CCCNC(=N)N)C(=O)N[C@@H](CCCNC(=N)N)C(=O)N[C@@H](CC(C)C)C(=O)N[C@@H](CO)C(=O)N[C@@H](CO)C(=O)N[C@H](C(=O)N[C@@H](CC(N)=O)C(=O)N[C@H](C(=O)NCC(=O)N[C@@H](CO)C(=O)N[C@@H](CC(N)=O)C(=O)N[C@H](C(=O)N[C@@H](Cc1ccc(O)cc1)C(N)=O)[C@@H](C)O)C(C)C)[C@@H](C)O)C(C)C` [Arg-2] (H-KCNTATCATQRLANFLVHSSNNRRRRLSSTNVGSNTY-NH2; disulfide 2-7 (inferred); N-terminus assumed), for which the entries for the “fibrillization detected (ThT)” value in data set [1] (setting [6]) and in data set [1] (setting [8]) were “failed to fibrillize” and “still failed to fibrillize”, respectively. For the same compound, the “fibrillization of peptide on its own (overall)” value in data set [1] (ThT, all conditions tested) is “did not form fibrils under any of the conditions tested; also recorded: did not form fibrils even at high concentrations of the peptide and salt”. In addition, the “aggregate morphology by TEM” value in data set [2] is “only detected amorphous aggregates with nonfibrillar morphologies; also recorded: few if any fibrils”. For the same compound, the “effect on WT-amylin fibrillization lag time” value in data set [3] was “increased with increasing concentrations”. In addition, the “reduction of WT-amylin fibril elongation rate” value in data set [3] is recorded as 8–10 fold. In data set [3] (varying NaCl), the “salt dependence of inhibition of elongation rate” value is given as “A very similar effect is seen; also recorded: more effective at physiological salt concentration or higher than in the absence of salt”. Besides, in data set [4], the “TEM of WT-amylin fibrils formed with inhibitor” value was “somewhat fewer fibrils and a greater amount of short fibrils”. The “protection against WT-amylin cytotoxicity” value in data set [5] (160 μM analog : 80 μM WT-amylin (2 : 1)) was “protects against cytotoxicity”.
